In patent publication US20090143279A1 (priority 2007, published 2009):
Like-named read-outs stand apart in the source and are kept apart here.

Tests used:
reactive oxygen species = assay type: cell-based, mouse; details: for ROS (composite Z-score): normalized score vs mock-treated (DMSO) wells
OXPHOS gene expression = assay type: cell-based, mouse; details: for GE-HTS (composite Z-score): normalized score vs mock-treated (DMSO) wells
nuOXPHOS transcripts = assay type: cell-based, mouse; details: for nucOX (composite Z-score): normalized score vs mock-treated (DMSO) wells
mtOXPHOS transcripts = assay type: cell-based, mouse; details: for mitoOX (composite Z-score): normalized score vs mock-treated (DMSO) wells
[1] = system: cellular dehydrogenase activity; details: for MTT (composite Z-score): normalized score vs mock-treated (DMSO) wells
C2C12 myotubes = details: for Viability (composite Z-score): normalized score vs mock-treated (DMSO) wells
cytochrome c = assay type: cell-based, mouse; details: for cyt c (composite Z-score): normalized score vs mock-treated (DMSO) wells
[2] = system: mitochondrial membrane potential; assay type: cell-based, mouse; details: for ΔΨm (composite Z-score): normalized score vs mock-treated (DMSO) wells
[3] = 20 μM, composite Z-score vs DMSO
[4] = composite Z-score vs DMSO, Conc 20 μM
[5] = normalized composite Z-score vs mock-treated (DMSO) wells, Conc 20 μM
[6] = composite Z-score vs mock-treated (DMSO) wells, Conc 20 μM
[7] = Table 7, C2C12 myotubes, 48 h, composite Z-score

SMILES	ROS (reactive oxygen species; [4])	GE-HTS (OXPHOS gene expression; [4])	nucOX (nuOXPHOS transcripts; [4])	mitoOX (mtOXPHOS transcripts; [4])	MTT [1, 4]	Viability (C2C12 myotubes; [4])	cyt c (cytochrome c; [4])	ROS (composite Z-score) (reactive oxygen species; Conc 20 μM)	GE-HTS (composite Z-score) (OXPHOS gene expression; Conc 20 μM)	nucOX (composite Z-score) (nuOXPHOS transcripts; Conc 20 μM)	mitoOX (composite Z-score) (mtOXPHOS transcripts; Conc 20 μM)	MTT (composite Z-score) ([1]; Conc 20 μM)	Viability (composite Z-score) (C2C12 myotubes; Conc 20 μM)	cyt c (composite Z-score) (cytochrome c; Conc 20 μM)	ΔΨm (composite Z-score) ([2]; Conc 20 μM)	also measured
CC1(C)[C@H]2CC[C@@]1(C)C(=O)C2 [1r-camphor]																ROS (reactive oxygen species; [3]): 0.042; GE-HTS (OXPHOS gene expression; [3]): 0.073; nucOX (nuOXPHOS transcripts; [3]): 0.107; mitoOX (mtOXPHOS transcripts; [3]): 0.023; MTT [1, 3]: −0.402; Viability (C2C12 myotubes; [3]): −0.744; cyt c (cytochrome c; [3]): 0.372; ΔΨm [2, 3]: −0.794
COc1ccc2c(c1OC)C(=O)O[C@@H]2[C@H]1c2cc3c(cc2CCN1C)OCO3 [1s,9r-hydrastine]	−0.029	−0.152	−0.041	−0.341	−0.539	0.650	0.359									ΔΨm [2]: −0.849
CCOc1ccc(C(=O)c2ccc(O)c(O)c2O)cc1 [2,3,4-trihydroxy-4′-ethoxybenzophenone]								0.052	−0.823	−0.896	−0.478	−2.368	−0.413	0.440	−1.185	
COc1ccc(C(=O)c2ccc(O)cc2)c(O)c1O [2,3,4′-trihydroxy-4-methoxybenzophenone]																ROS (reactive oxygen species; [5]): −0.472; GE-HTS (OXPHOS gene expression; [5]): −1.557; nucOX (nuOXPHOS transcripts; [5]): −1.472; mitoOX (mtOXPHOS transcripts; [5]): −1.476; MTT [1, 5]: −0.475; Viability (C2C12 myotubes; [5]): −0.403; cyt c (cytochrome c; [5]): 0.378; ΔΨm [2, 5]: −1.356
CC(=O)O[C@@H]1C[C@H]2C(C)(C)CCC(=O)[C@]2(C)[C@H]2CC[C@@]3(C)[C@H](c4ccoc4)OC(=O)[C@H]4O[C@]43[C@@]21C [2,3-dihydroisogedunin]								0.780	−0.471	−0.444	−0.449	−1.287	0.804	0.184	0.221	
Oc1nc2cc(Cl)c(Cl)cc2nc1O [2,3-dihydroxy-6,7-dichloroquinoxaline]								0.085	−0.724	−0.712	−0.565	−1.458	−0.077	0.279	−1.689	
COC1=CC(=O)C(C(=O)c2ccccc2)=CC1=O [2-benzoyl-5-methoxybenzoquinone]	−0.542	−0.699	−0.511	−0.985	−1.489	−0.284	0.206									ΔΨm [2, 4]: −0.229
CCOC(=O)C1(O)Oc2cc(OC)cc(OC)c2C(=O)C1c1ccccc1 (stereo not shown) [2-ethoxycarbonyl-2-hydroxy-5,7-dimethoxyisoflavanone, reference compound]																ROS (reactive oxygen species; [6]): 0.774; GE-HTS (OXPHOS gene expression; [6]): 0.280; nucOX (nuOXPHOS transcripts; [6]): 0.232; mitoOX (mtOXPHOS transcripts; [6]): 0.273; MTT [1, 6]: −0.260; Viability (C2C12 myotubes; [6]): 0.511; cyt c (cytochrome c; [6]): 0.161; ΔΨm [2, 6]: 0.215
O=c1c2ccccc2oc2ccc(O)cc12 [2-hydroxyxanthone]	1.660	−0.364	−0.173	−0.652	−1.863	−0.402	0.238									ΔΨm [2, 4]: −0.245
CC(C)=CCc1c(O)cc(C)oc1=O [2-isoprenyl-3-hydroxy-5-methyl-a-pyrone]																ROS (reactive oxygen species; [6]): 1.032; GE-HTS (OXPHOS gene expression; [6]): 0.309; nucOX (nuOXPHOS transcripts; [6]): 0.277; mitoOX (mtOXPHOS transcripts; [6]): 0.271; MTT [1, 6]: 0.055; Viability (C2C12 myotubes; [6]): −1.025; cyt c (cytochrome c; [6]): −0.568; ΔΨm [2, 6]: −0.641
COc1cccc(C=CC(=O)O)c1C(C)C [2-isopropyl-3-methoxycinnamic acid]																ROS (reactive oxygen species; [5]): 0.433; GE-HTS (OXPHOS gene expression; [5]): 0.153; nucOX (nuOXPHOS transcripts; [5]): 0.153; mitoOX (mtOXPHOS transcripts; [5]): 0.071; MTT [1, 5]: −2.002; Viability (C2C12 myotubes; [5]): 0.040; cyt c (cytochrome c; [5]): 0.274; ΔΨm [2, 5]: −0.155
Sc1nc2ccccc2s1 [2-mercaptobenzothiazole]								0.354	−0.211	−0.231	−0.097	−0.672	−0.830	−0.026	−0.486	
COc1c(O)cccc1O [2-methoxyresorcinol]								0.864	0.218	−0.150	0.954	0.266	0.514	−0.146	−0.536	
COc1ccc2oc3ccccc3c(=O)c2c1 [2-methoxyxanthone]	1.398	−0.467	−0.710	0.165	−1.044	−0.428	1.007									ΔΨm [2, 4]: 0.540
Cc1occc(=O)c1/C=C/O [2-methyl-3-hydroxyethylenepyran-4-one]																ROS (reactive oxygen species; [5]): 0.234; GE-HTS (OXPHOS gene expression; [5]): −0.128; nucOX (nuOXPHOS transcripts; [5]): −0.012; mitoOX (mtOXPHOS transcripts; [5]): −0.305; MTT [1, 5]: −0.725; Viability (C2C12 myotubes; [5]): 0.309; cyt c (cytochrome c; [5]): −0.244; ΔΨm [2, 5]: −0.608
COc1cc(OC)c2c(=O)c(-c3ccccc3)c(C)oc2c1OC [2-methyl-5,7,8-trimethoxyisoflavone]	−0.371	0.495	0.629	0.081	−0.531	−0.656	1.063									ΔΨm [2, 4]: 0.306
CCCc1occc(=O)c1CCO [2-propyl-3-hydroxyethylenepyran-4-one]								0.195	0.682	0.870	0.202	−0.906	0.162	−0.100	−0.741	
O=C(O[C@@H]1Cc2c(O)cc(O)cc2O[C@@H]1c1cc(O)c(O)c(O)c1-c1c([C@H]2Oc3cc(O)cc(O)c3C[C@H]2OC(=O)c2cc(O)c(O)c(O)c2)cc(O)c(O)c1O)c1cc(O)c(O)c(O)c1 [2′,2′-bisepigallocatechin digallate]																ROS (reactive oxygen species; [5]): −0.130; GE-HTS (OXPHOS gene expression; [5]): −0.865; nucOX (nuOXPHOS transcripts; [5]): −0.836; mitoOX (mtOXPHOS transcripts; [5]): −0.808; MTT [1, 5]: −0.826; Viability (C2C12 myotubes; [5]): 0.851; cyt c (cytochrome c; [5]): 0.616; ΔΨm [2, 5]: −1.132
O=C(O[C@@H]1Cc2c(O)cc(O)cc2O[C@@H]1c1cc(O)c(O)c(O)c1-c1c([C@H]2Oc3cc(O)cc(O)c3C[C@H]2O)cc(O)c(O)c1O)c1cc(O)c(O)c(O)c1 [2′,2′-bisepigallocatechin monogallate]								0.428	−0.573	−0.545	−0.575	−1.318	0.442	0.246	−2.350	
O=C(/C=C/c1ccccc1)c1ccc(O[C@@H]2O[C@H](CO)[C@@H](O)[C@H](O)[C@H]2O)cc1O [2′,4′-dihydroxychalcone 4′-glucoside]								1.144	−0.189	−0.247	0.004	−1.358	0.556	−0.225	−0.532	
O=C(C=C(O)c1ccccc1)c1ccccc1O [2′,beta-dihydroxychalcone]	0.194	0.097	−0.188	0.600	−1.791	−0.801	−0.260									ΔΨm [2, 4]: −0.044
COc1ccc(-c2coc3cc(O)ccc3c2=O)c(OC)c1 [2′-methoxyformonetin]																ROS (reactive oxygen species; [6]): 1.137; GE-HTS (OXPHOS gene expression; [6]): −0.484; nucOX (nuOXPHOS transcripts; [6]): −0.561; mitoOX (mtOXPHOS transcripts; [6]): −0.296; MTT [1, 6]: −1.138; Viability (C2C12 myotubes; [6]): 0.477; cyt c (cytochrome c; [6]): −1.318; ΔΨm [2, 6]: 0.388
COc1cc(C=CC=O)cc(OC)c1OC [3,4,5-trimethoxycinnamaldehyde]	−0.228	−0.523	−0.724	0.025	1.043	1.061	−0.808									ΔΨm [2, 4]: 0.647
CC1(O)CC2C(CC1O)C2(C)C (stereo not shown) [3,4-dihydroxycarane]	0.697	−1.265	−0.951	−1.620	−0.697	0.448	0.475									ΔΨm [2, 4]: −0.659
C=CC(C1=CC(=O)C(OC)=C(OC)C1=O)c1ccccc1 (stereo not shown) [3,4-dimethoxydalbergione, reference compound]																ROS (reactive oxygen species; [6]): −1.269; GE-HTS (OXPHOS gene expression; [6]): −3.047; nucOXPHOS Z (nuOXPHOS transcripts; [7]): −2.94; nucOX (nuOXPHOS transcripts; [6]): −2.944; mito-OXPHOS Z (mtOXPHOS transcripts; [7]): −2.72; mitoOX (mtOXPHOS transcripts; [6]): −2.724; MTT [1, 6]: −6.200; Viability (C2C12 myotubes; [6]): −4.588; cyt c (cytochrome c; [6]): −5.551; ΔΨm [2, 6]: −3.787
